In patent US20160168140A1, “HETEROCYCLIC COMPOUNDS AS ANTIBIOTIC POTENTIATORS” (priority 2014, published 2016):

system: Acinetobacter baumannii (Ab23); assay: MIC shift assay of antibiotics (broth microdilution); assay type: cell-based; conditions: compound concentration 2 μM; fold shift of colistin MIC; nc = no changeover or no shift
Outline: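 Following a modified Wiegand broth microdilution protocol, colistin serial dilutions with or without test compound were set up in round-bottom 96-well plates and inoculated with A. baumannii cells to a starting OD600 of 0.005. Plates were shaken at 37° C. for 18 to 20 h and read at OD600. The fold shift was calculated from colistin MIC alone versus colistin MIC with test compound, with growth and medium-only blank controls.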

SMILES	colistin MIC shift, Ab23 at (compd concentration) [x]
FC(F)(F)c1ccc2c(-c3ccc4ccccc4c3)n[nH]c2c1 [compound 540]	4

same assay, conditions: compound concentration 4 μM; fold shift of colistin MIC; nc = no changeover or no shift

SMILES	colistin MIC shift, Ab23 at (compd concentration)
CN(C)CCCNc1nc(-c2cccc(-c3cccc(Cl)c3Cl)c2)nc2c(Cl)cccc12 [compound 490]	16x
CN(C)CCCNc1nc(-c2cccc(-c3cc(F)cc(C(F)(F)F)c3)c2)nc2c(Cl)cccc12 [compound 491]	32x
CCN(CC)CCCC(C)Nc1nc(-c2cc(-c3cccc(C(F)(F)F)c3)cc(C(F)(F)F)c2)nc2c(C)cccc12 (stereo not drawn) [compound 493]	16x
Cc1cccc2c(NCCCN(C)C)nc(-c3cc(-c4cccc(C(F)(F)F)c4)cc(C(F)(F)F)c3)nc12 [compound 494]	16x
CCN(CC)CCCC(C)Nc1nc(-c2cc(-c3ccc(C(F)(F)F)cc3)cc(C(F)(F)F)c2)nc2c(C)cccc12 (stereo not drawn) [compound 495]	16x
Cc1cccc2c(NCCCN(C)C)nc(-c3cc(-c4ccc(C(F)(F)F)cc4)cc(C(F)(F)F)c3)nc12 [compound 496]	16x
Cc1cccc2c(N(C)CCCN(C)C)nc(-c3cc(Br)cc(C(F)(F)F)c3)nc12 [compound 502]	32x
Cc1cc(-c2nc(NCCCN(C)C)c3cccc(C)c3n2)cc(C(F)(F)F)c1 [compound 507]	8x
Cc1cccc2c(NCCCN(C)C)nc(-c3cc(F)cc(C(F)(F)F)c3)nc12 [compound 508]	8x
Cc1cccc2c(NCCCN(C)C)nc(-c3cc(-c4ccccc4C(F)(F)F)cc(C(F)(F)F)c3)nc12 [compound 509]	64x
Cc1cccc2c(NCCCN(C)C)nc(-c3cc(-c4cccnc4)cc(C(F)(F)F)c3)nc12 [compound 510]	16x
Cc1c(Cl)ccc2c(NCCCN(C)C)nc(-c3cc(Br)cc(C(F)(F)F)c3)nc12 [compound 511]	64x
Cc1c(Br)ccc2c(NCCCN(C)C)nc(-c3cc(Br)cc(C(F)(F)F)c3)nc12 [compound 512]	64x
Cc1cccc2c(NCCCN(C)C)nc(-c3cc(-c4ccccc4Cl)cc(C(F)(F)F)c3)nc12 [compound 513]	32x
CN(C)CCCNc1nc(-c2cc(-c3ccccc3)cc(C(F)(F)F)c2)nc2c(C(F)(F)F)cccc12 [compound 514]	16x
CN(C)CCCNc1nc(-c2cc(Br)cc(C(F)(F)F)c2)nc2ccc(Br)cc12 [compound 515]	8x

SMILES	colistin MIC shift, Ab23 at (compd concentration)
Clc1ccc2c(-c3cccc(-c4ccccc4)c3)n[nH]c2c1 [compound 526]	1x
FC(F)(F)c1ccc2c(-c3ccc(Cl)c(Cl)c3)n[nH]c2c1 [compound 541]	32x
FC(F)(F)c1ccc2c(-c3cccc(Cl)c3Cl)n[nH]c2c1 [compound 543]	1x
Fc1cc(C(F)(F)F)ccc1-c1n[nH]c2cc(C(F)(F)F)ccc12 [compound 544]	8x
CN(C)CCCNc1nc(-c2cn(Cc3ccccc3)c3c(Cl)cccc23)nc2c(F)cccc12 [compound 565]	2-4x
CN(C)CCCNc1nc(-c2cn(Cc3ccccc3)c3c(Cl)cccc23)nc2c(Cl)cccc12 [compound 567]	16x
CN(C)CCCNc1nc(-c2cn(Cc3ccccc3)c3c(Cl)cccc23)nc2c(Br)cccc12 [compound 569]	8x
CN(C)CCCNc1nc(-c2cn(Cc3ccccc3)c3c(Cl)cccc23)nc2c(-c3ccncc3)cccc12 [compound 571]	4x
Cc1ccc(Cn2cc(-c3nc(NCCCN(C)C)c4cccc(C)c4n3)c3cccc(Cl)c32)cc1 [compound 573]	16x
Cc1cccc(Cn2cc(-c3nc(NCCCN(C)C)c4cccc(C)c4n3)c3cccc(Cl)c32)c1 [compound 575]	16x
Cc1cccc2c(NCCCN(C)C)nc(-c3cn(Cc4ccc(Cl)cc4)c4c(Cl)cccc34)nc12 [compound 577]	16x
Cc1cccc2c(NCCCN(C)C)nc(-c3cn(Cc4cccc(Cl)c4)c4c(Cl)cccc34)nc12 [compound 579]	16x
CNCCCNc1nc(-c2cn(Cc3ccccc3)c3c(Cl)cccc23)nc2c(C)cccc12 [compound 580]	8x
Cc1cccc2c(N(C)CCCN(C)C)nc(-c3cn(Cc4ccc(Cl)cc4)c4c(Cl)cccc34)nc12 [compound 582]	8x
CNCCCNc1nc(-c2cn(Cc3ccc(Cl)cc3)c3c(Cl)cccc23)nc2c(C)cccc12 [compound 583]	4x

same assay, conditions: compound concentration 8 μM; fold shift of colistin MIC; nc = no changeover or no shift

SMILES	colistin MIC shift, Ab23 at (compd concentration) [x]
Cc1cccc2c(NCCCN(C)C)nc(-c3cccc(C(F)(F)F)c3)nc12 [compound 499]	16
COc1cc(-c2nc(NCCCN(C)C)c3cccc(C)c3n2)cc(C(F)(F)F)c1 [compound 504]	16

same assay, conditions: compound concentration 10 μM; fold shift of colistin MIC; nc = no changeover or no shift

SMILES	colistin MIC shift, Ab23 at (compd concentration) [x]
CCN(CC)CCCC(C)Nc1nc(-c2cc(N3CCOCC3)cc(C(F)(F)F)c2)nc2c(C)cccc12 (stereo not drawn) [compound 500]	4
Cc1cccc2c(NCCCN(C)C)nc(-c3cc(N4CCOCC4)cc(C(F)(F)F)c3)nc12 [compound 501]	8
CN(C)CCCNc1nc(-c2cc(Br)cc(C(F)(F)F)c2)nc2c(F)cccc12 [compound 503]	4
Cc1ccc2nc(-c3cc(Br)cc(C(F)(F)F)c3)nc(NCCCN(C)C)c2c1 [compound 516]	16
FC(F)(F)c1cccc(-c2cccc(-c3n[nH]c4ccc(Cl)cc34)c2)c1 [compound 525]	1
FC(F)(F)c1ccc2c(-c3cccc(-c4ccc(Cl)c(Cl)c4)c3)n[nH]c2c1 [compound 527]	8
Fc1cc(-c2cccc(-c3n[nH]c4cc(C(F)(F)F)ccc34)c2)ccc1C(F)(F)F [compound 528]	8
FC(F)(F)c1cccc(-c2cccc(-c3n[nH]c4cc(C(F)(F)F)ccc34)c2)c1 [compound 529]	8
FC(F)(F)c1ccc2c(-c3cccc(-c4cc(Cl)cc(Cl)c4)c3)n[nH]c2c1 [compound 530]	4
Fc1cc(C(F)(F)F)ccc1-c1cccc(-c2n[nH]c3cc(C(F)(F)F)ccc23)c1 [compound 531]	4
Clc1ccc2[nH]nc(-c3cccc(-c4ccc(Cl)c(Cl)c4)c3)c2c1 [compound 532]	4
Clc1cccc(Cn2nc(-c3cccc(-c4ccccc4)c3)c3cc(Cl)ccc32)c1 [compound 533]	1
Fc1ccc2c(-c3cccc(Cl)c3)n[nH]c2c1 [compound 534]	1
Cc1cccc(-c2n[nH]c3cc(F)ccc23)c1 [compound 535]	1
FC(F)(F)c1cccc(-c2n[nH]c3cc(C(F)(F)F)ccc23)c1 [compound 536]	16
N#Cc1cccc(-c2n[nH]c3cc(F)ccc23)c1 [compound 538]	1

SMILES	colistin MIC shift, Ab23 at (compd concentration) [x]
Fc1cc(-c2n[nH]c3ccc(Cl)cc23)ccc1C(F)(F)F [compound 539]	4
FC(F)(F)c1ccc2c(-c3ccc(Cl)c(Cl)c3)nn(Cc3ccc(Cl)cc3)c2c1 [compound 542]	1
FC(F)(F)c1ccc2c(-c3ccc(Cl)c(Cl)c3)nn(Cc3cccc(Cl)c3)c2c1 [compound 545]	1
Fc1cc(-c2n[nH]c3cc(C(F)(F)F)ccc23)ccc1C(F)(F)F [compound 546]	1
FC(F)(F)c1ccc2c(-c3ccccc3C(F)(F)F)n[nH]c2c1 [compound 547]	1
FC(F)(F)c1cc(Br)cc(-c2n[nH]c3cc(C(F)(F)F)ccc23)c1 [compound 548]	16
Fc1ccc(-c2n[nH]c3cc(C(F)(F)F)ccc23)cc1C(F)(F)F [compound 549]	32
Fc1cc(-c2n[nH]c3cc(C(F)(F)F)ccc23)cc(C(F)(F)F)c1 [compound 550]	64
FC(F)(F)c1cc(Cl)cc(-c2n[nH]c3cc(C(F)(F)F)ccc23)c1 [compound 551]	32
COc1cc(-c2n[nH]c3cc(C(F)(F)F)ccc23)cc(C(F)(F)F)c1 [compound 552]	8
COC(=O)c1cc(-c2n[nH]c3cc(C(F)(F)F)ccc23)cc(C(F)(F)F)c1 [compound 553]	1
Nc1cc(-c2n[nH]c3cc(C(F)(F)F)ccc23)cc(C(F)(F)F)c1 [compound 554]	8
FC(F)(F)c1ccc2[nH]nc(-c3ccc(Cl)c(Cl)c3)c2c1 [compound 555]	32
O=C(c1ccc(Cl)c(Cl)c1)n1nc(-c2ccc(Cl)c(Cl)c2)c2ccc(C(F)(F)F)cc21 [compound 558]	1
Clc1ccc(-c2n[nH]c3cc(Br)ccc23)cc1Cl [compound 559]	8
CN(C)CCCNc1nc(-c2cn(Cc3ccccc3)c3c(Cl)cccc23)nc2ccccc12 [compound 563]	8
